The record followed here is US10188647B2, “Combination therapy using P53 activator and c-Met inhibitor” (Samsung Electronics Co., Ltd., priority 2013, dated 2019).

Assay [1] has as its system MKN45 stomach cancer cell line. Description: MKN45 cell proliferation after sole or combined treatment (CTG). In kind it is cell-based. The note with it: 72 hours. As for the experimental part: The effects obtained by the co-administration of L3-1Y antibody that is a c-Met antibody prepared in the above reference example and Nutlin-3a that is a p53 activator, were tested in MKN45 stomach cancer cell line.
In particular, RPMI1640 media (GIBCO) containing 10% FBS were added to a 96-well plate, to which MKN45 stomach cancer cell line (ATCC) was seeded at 10,000 cells/well, and then incubated overnight at 37° C. On the next day, the sole treatment of 0.1 ug/ml of L3-1Y antibody, the sole treatment of 0.5 uM of Nutlin-3a (#N6287, sigma) which is a p53 activator, and the combined treatment of 0.1 ug/ml of L3-1Y antibody and 0.5 uM (micromole) of Nutlin-3a were administered to the incubated cells. After 72 hours post-administration, a CTG solution was added to the wells at 100 ul per well and after 30 min., and cell numbers were counted to measure a cell proliferation level.

In assay [2] the test system is Caki-1 cell line. Further details: expression of p21: dose or concentration left out as unconfirmed. The following applies: Caki-1 cells, 24 hours, western blot. As for the experimental part: (§1) The activation of cell signal transduction system after the co-administration of L3-1Y antibody that is a c-Met antibody prepared in the above reference example and Nutlin-3a that is a p53 activator, was tested in MKN45 stomach cancer cell line and Caki-1 cell line.
(§2) Particularly, RPMI1640 (for MKN45 cells) containing 10% FBS, and DMEM (for Caki-1 cells) media (GIBCO) were added to a 96-well plate, to which MKN45 cell line (ATCC) and Caki-1 cell line (both of them were all obtained from ATCC) were each seeded in an amount of […], and then incubated overnight at 37° C. On the next day, the sole treatment of L3-1Y antibody at a concentration of 0.1 ug/ml (MKN45 cells) and 5 ug/ml (Caki-1 cells), […], and the combined treatment of L3-1Y antibody at 0.1 ug/ml (MKN45 cells) and 5 ug/ml ([…], respectively) were administered. After 24 hours post-administration, c-Met inhibition and p53 activation were analyzed by western blot.
(In general: Immunoblotting shows a protein as a band on a membrane.)

Assay [3] relates to MKN45 stomach cancer cell line. The assay can be described thus: Western blot of p53 and p21 expression/accumulation, MKN45 cells. In kind it is cell-based. The note with it: 24 hours. As for the experimental part:
as §1, §2

For another assay, the target named is c-Met (Homo sapiens, UniProt P08581). The assay can be described thus: Specificity of expressed scFv to c-Met. In kind it is binding. The note with it: expressed scFv product.
Chain of c-Met (P08581 25-1390): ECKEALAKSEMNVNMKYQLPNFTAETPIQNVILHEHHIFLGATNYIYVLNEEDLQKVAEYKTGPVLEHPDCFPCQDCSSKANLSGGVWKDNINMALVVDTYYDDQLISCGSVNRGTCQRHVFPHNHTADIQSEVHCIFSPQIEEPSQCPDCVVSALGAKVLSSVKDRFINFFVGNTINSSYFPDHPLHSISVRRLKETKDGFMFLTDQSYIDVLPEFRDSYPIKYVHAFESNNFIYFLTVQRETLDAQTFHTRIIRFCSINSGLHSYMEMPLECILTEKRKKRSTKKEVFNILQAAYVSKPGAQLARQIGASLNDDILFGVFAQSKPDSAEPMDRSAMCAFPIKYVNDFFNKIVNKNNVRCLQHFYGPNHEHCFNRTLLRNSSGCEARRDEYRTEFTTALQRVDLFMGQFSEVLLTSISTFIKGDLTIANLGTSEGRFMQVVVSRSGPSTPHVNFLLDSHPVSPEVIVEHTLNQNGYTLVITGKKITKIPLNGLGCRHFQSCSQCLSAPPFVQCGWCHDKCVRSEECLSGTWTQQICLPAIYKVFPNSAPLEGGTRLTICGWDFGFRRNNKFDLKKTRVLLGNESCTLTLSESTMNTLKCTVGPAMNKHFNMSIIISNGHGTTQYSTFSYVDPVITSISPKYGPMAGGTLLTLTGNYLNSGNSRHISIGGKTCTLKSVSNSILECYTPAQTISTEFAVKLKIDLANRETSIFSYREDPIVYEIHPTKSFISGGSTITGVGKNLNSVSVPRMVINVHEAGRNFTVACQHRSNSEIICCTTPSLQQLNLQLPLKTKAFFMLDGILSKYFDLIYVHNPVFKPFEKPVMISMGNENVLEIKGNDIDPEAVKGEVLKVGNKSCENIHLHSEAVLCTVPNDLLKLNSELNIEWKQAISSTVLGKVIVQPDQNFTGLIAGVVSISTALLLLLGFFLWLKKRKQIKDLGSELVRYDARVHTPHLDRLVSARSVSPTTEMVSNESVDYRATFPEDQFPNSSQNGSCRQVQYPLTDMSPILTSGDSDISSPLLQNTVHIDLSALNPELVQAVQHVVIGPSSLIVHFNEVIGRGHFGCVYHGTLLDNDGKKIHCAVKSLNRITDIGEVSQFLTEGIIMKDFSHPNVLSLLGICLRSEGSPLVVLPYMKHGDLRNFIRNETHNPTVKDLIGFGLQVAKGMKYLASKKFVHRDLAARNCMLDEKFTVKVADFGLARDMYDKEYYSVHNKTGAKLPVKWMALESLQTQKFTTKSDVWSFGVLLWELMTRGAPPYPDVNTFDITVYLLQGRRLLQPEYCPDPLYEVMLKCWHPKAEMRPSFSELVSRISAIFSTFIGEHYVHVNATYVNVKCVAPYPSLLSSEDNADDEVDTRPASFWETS
The subject of assay [4] is Caki-1 cell line. Description: Caki-1 cell proliferation (BrdU assay), agonism of L3-1Y antibody. It counts as cell-based. The note with it: sole treatment 10 ug/ml L3-1Y, serum-free, 24 hours. As for the experimental part:
The effects obtained by the co-administration of L3-1Y antibody that is a c-Met antibody prepared in the above reference example and Nutlin-3a that is a p53 activator, were tested in Caki-1 cell line.
Particularly, DMEM media (GIBCO) containing 10% FBS were added to a 96-well plate, to which Caki-1 cell line (ATCC) was seeded at 5,000 cells/well, and then incubated overnight at 37° C. On the next day, the media was replaced by serum-free media, which were then incubated for 24 hours. The sole treatment of 10 ug/ml of L3-1Y antibody, and the combined treatment of 0.1 ug/ml of L3-1Y antibody and 5 uM of Nutlin-3a were administered to the incubated cells. After 24 hours post-administration, a BrdU assay was conducted to measure the cell proliferation level.

[5] abbreviates: sole treatment 0.5 uM Nutlin-3a.
The mark [6] stands for this setting: sole treatment 0.5 mM Nutlin-3a.

Take `COc1ccc(C2=N[C@@H](c3ccc(Cl)cc3)[C@@H](c3ccc(Cl)cc3)N2C(=O)N2CCNC(=O)C2)c(OC(C)C)c1` [Nutlin-3a]: in assay [1] (setting [5]), the “suppressive effects of cell proliferation” value was “did not show suppressive effects of cell proliferation”. Moreover, the p53 accumulation entry (in the assay with Caki-1 cell line [2] (setting [6]); in assay [3] (setting [6])) was “accumulated” each time. The “expression of p21” value (in the assay with Caki-1 cell line [2] (sole treatment); in assay [3] (setting [5])) was “accumulated” in each case.

B1: scFv of huAbF46: scFv with structure VH-linker-VL from heavy and light chain variable regions of huAbF46 antibody (protein)
scFv: EVQLVESGGGLVQPGGSLRLSCAASGFTFTDYYMSWVRQAPGKGLEWLGFIRNKANGYTTEYSASVKGRFTISRDNSKNTLYLQMNSLRAEDTAVYYCARDNWFAYWGQGTLVTVSSGLGGLGGGGSGGGGSGGSSGVGSDIQMTQSPSSLSASVGDRVTITCKSSQSLLASGNQNNYLAWHQQKPGKAPKMLIIWASTRVSGVPSRFSGSGSGTDFTLTISSLQPEDFATYYCQQSYSAPLTFGQGTKVEIKR
With B1, the “specificity to c-Met” value in the assay with c-Met is listed as “exhibit specificity to c-Met”.

B2: L3-1Y: anti c-Met antibody: huAbF46-H4-A1 heavy chain variable region, human IgG2 hinge and constant region, kappa light chain (antibody)
heavy: EVQLVESGGGLVQPGGSLRLSCAASGFTFTDYYMSWVRQAPGKGLEWLGFIRNKANGYTTEYSASVKGRFTISRDNSKNTLYLQMNSLRAEDTAVYYCARDNWFAYWGQGTLVTVSSASTKGPSVFPLAPCSRSTSESTAALGCLVKDYFPEPVTVSWNSGALTSGVHTFPAVLQSSGLYSLSSVVTVPSSNFGTQTYTCNVDHKPSNTKVDKTVERKCCVECPPCPAPPVAGPSVFLFPPKPKDTLMISRTPEVTCVVVDVSHEDPEVQFNWYVDGVEVHNAKTKPREEQFNSTFRVVSVLTVVHQDWLNGKEYKCKVSNKGLPAPIEKTISKTKGQPREPQVYTLPPSREEMTKNQVSLTCLVKGFYPSDIAVEWESNGQPENNYKTTPPMLDSDGSFFLYSKLTVDKSRWQQGNVFSCSVMHEALHNHYTQKSLSLSPGK
light: DIQMTQSPSSLSASVGDRVTITCKSSQSLLASGNQNNYLAWYQQKPGKAPKMLIIWASTRVSGVPSRFSGSGSGTDFTLTISSLQPEDFATYYCQQSYSRPYTFGQGTKVEIKRTVAAPSVFIFPPSDEQLKSGTASVVCLLNNFYPREAKVQWKVDNALQSGNSQESVTEQDSKDSTYSLSSTLTLSKADYEKHKVYACEVTHQGLSSPVTKSFNRGEC
Regarding B2, in assay [1] (sole treatment 0.1 ug/ml L3-1Y), the “suppressive effects of cell proliferation” value is given as “about 10%”. Besides, the “promoted cell proliferation as compared to the media-only control” value in the assay on Caki-1 cell line [4] was at least 20%.
